# Experimental data from patent US9687498B1, “Composition for preventing or treating muscle wasting-related disease and use thereof” (Samsung Electronics Co., Ltd., priority 2015, dated 2017).
# Where a name gives a salt, the structure may show the parent alone.
# Experiments:
# Type in all cases: cell-based, mouse
# [1] = test system: myostatin; experiment: Real time PCR of myostatin mRNA in differentiated C2C12 muscle cells; settings: 10 μM compound in 0.1% DMSO, about 24 hours, normalized to GAPDH, vs DMSO negative control
# Method: (§1) In detail, C2C12 cell line (mouse gastrocnemius muscle, ATCC® CRL-1772™) was seeded in a 10% FBS/DMEM culture medium. When the cells reached about 70% confluence in 5% CO2 incubator at 37° C., the culture medium was replaced by 2% FBS/DMEM, and further cultured for about 4 days to induce complete differentiation into muscle cells. The C2C12 cell line is a mouse myoblast cell line obtained through continuous culture of myoblasts cultured from the gastrocnemius muscle of C3H mice.
# (§2) When the C2C12 cells were completely differentiated, the medium was removed, and 10 μM (in 0.1% DMSO) of active compound for screening was added to the cultured muscle cells, followed by incubation under conditions of 37° C. and 5% CO2 for about 24 hours. As the active compound for screening, a library of a total of 700 compounds (Selleck Chemicals) was used. Thereafter, the cultured muscle cells were washed with PBS to obtain muscle cells. As a negative control, muscle cells treated with DMSO (Sima-Aldrich), instead of the active compound for screening, were used. As a positive control, muscle cells treated with forskolin were used.
# (§3) Total RNA was separated according to the manufacturer's protocol by adding a Trizol reagent (Invitrogen) to the obtained cells. cDNA was synthesized from the separated total RNA using reverse transcriptase. The mRNA levels of PGC-1 alpha 4 isoform and myostatin were quantified using a real time PCR (MyiQPCR instrument, BioRad), which is a device for measuring SYBR Green. The resulting amounts were then normalized to the amount of GAPDH mRNA.
# (§4) After normalization of the values obtained from the amplification to GAPDH gene, relative mRNA expression levels of PGC-1 alpha 4 isoform and myostatin were quantified. The relative mRNA expression levels (Arbitrary Unit; AU) of PGC-1 alpha 4 isoform and myostatin thus quantified are shown in FIGS. 2A and 2B, respectively (*: p<0.05 vs. negative control).
# [2] = test system: PGC-1 alpha 4 isoform; experiment: Real time PCR of PGC-1 alpha 4 isoform mRNA in differentiated C2C12 muscle cells; settings: 10 μM compound in 0.1% DMSO, about 24 hours, normalized to GAPDH, vs DMSO negative control
# Method: as §1, §2, §3, §4
# [3] = test system: C2C12 cells; experiment: Muscle fiber diameter of differentiated C2C12 muscle cells (microscope); settings: 100 μM compound, about 24 hours, vs DMSO negative control
# Method: as §1
# Muscle fiber-protecting effects of the compounds selected in 1. were examined by measuring the diameter of muscle fiber according to addition of the selected compounds.
# As described in Example 1.1, C2C12 cells were completely differentiated to muscle cells. After removal of the medium, 4 ml of a fresh medium containing each 100 μM of isotretinoin (Roche), vismodegib (Genentech), or lincomycin hydrochloride (Sima-Aldrich) was added, and the cells were cultured in a 5% CO2 incubator at 37° C. for about 24 hours. As a negative control, muscle cells treated with DMSO (Sima-Aldrich), instead of the selected compounds, were used. As a positive control, muscle cells treated with forskolin were used.
# Thereafter, the cultured cells were washed with PBS. Muscle fibers of the cells were photographed with a microscope (×200), and diameter (μm) of the muscle fiber was measured.
Compound,level (relative mRNA expression) of myostatin compared to the negative control [1],level (relative mRNA expression) of PGC-1 alpha 4 isoform compared to the negative control [2],muscle fiber diameter compared to the negative control [3]
"CCC[C@@H]1C[C@@H](C(=O)N[C@@H]([C@H]2O[C@H](SC)[C@H](O)[C@@H](O)[C@H]2O)[C@@H](C)O)N(C)C1 [lincomycin hydrochloride, (2S,4R)-N-[(1R,2R)-2-hydroxy-1-[(2R,3R,4S,5R,6R)-3,4,5-trihydroxy-6-(methylsulfanyl)oxan-2-yl]propyl]-1-methyl-4-propylpyrrolidine-2-carboxamide]",decreasing,increasing,increased
"CC1=C(/C=C/C(C)=C/C=C/C(C)=C\C(=O)O)C(C)(C)CCC1 [isotretinoin, (2Z,4E,6E,8E)-3,7-dimethyl-9-(2,6,6-trimethylcyclohex-1-en-1-yl)nona-2,4,6,8-tetraenoic acid]",decreasing,increasing,increased
"CS(=O)(=O)c1ccc(C(=O)Nc2ccc(Cl)c(-c3ccccn3)c2)c(Cl)c1 [vismodegib, 2-chloro-N-(4-chloro-3-pyridin-2-ylphenyl)-4-methylsulfonylbenzamide]",decreasing,increasing,increased
